Several values for one entry are separate records, joined by “and”; a condition that tells them apart may be missing. Equal entries are not always repeated.
Columns and labels:
p24 Gag protein = experiment: Western blot of p24 Gag protein, pNL4-3-transfected HeLa cells and viral progeny; type: cell-based, HIV-1; details: increasing concentration
Text: In vitro, this process occurs in the presence of nucleic acids and a cofactor (Campbell, 1999; Campbell, 2001). Immature particles fail to consolidate an outer membrane, emphasizing the critical role of Gag proteins in the assembly process (Didierlaurent, 2008). As virions bud from the host membrane, viral protease cleaves p55 Gag into its final mature components: matrix (p17), capsid (p24), nucleocapsid (p7) and p6, each designated by its apparent molecular weight. […] Effects may extend across the Gag polyprotein and its components, further compounding activities.

[1] = test system: Petaluma strain of FIV (proviral DNA in PBMC); experiment: Proviral load in peripheral blood mononuclear cells by TM-PCR; type: in vivo, domestic cat; details: for Proviral Load in PBMC: cats BR, CF
Text: Currently available antiretrovirals require daily dosing, often in combination therapy. Two 12^+-year old specific-pathogen-free domestic female cats infected >5 years with the Petaluma strain of FIV were used in this study. The animals were housed individually in a climatized animal facility in accordance with standards, had ad libitum access to fresh water and food, and were sedated with Tiletamine/Zolazepam intramuscularly prior to any procedure. The cats weighed from 3-5 kg each. Three weeks before initiation of the treatment and at scheduled times, samples were collected for hematological and virological analyses. The cats received 9 intravenous doses of 3 mg/kg FX101 over 4.5 weeks (2× weekly).
Genomic DNA was extracted from the PBMC using the QIAamp DNA Blood Mini kit (QIAGEN). Proviral DNA was quantified from 0.4 ug genomic DNA by TM-PCR under the same conditions used for cDNA amplification except that the reaction mixture volume was 25 ul (n=3). The sensitivity of the assay was 100 copies/ug genomic DNA (Pistello, 2005). Proviral load varied over the course of treatment, but measured much lower than baseline pretreatment measures both 6 and 9 months later (27 and 38 weeks, respectively). This measure reflects viral integration into the host PBMCs, primed for production of viral particles with commencement of transcription. […] This is indicative of viral clearance and immune recovery, including apoptotic elimination of virally-infected cells. Viral reservoirs, such as those of macrophages and monocytes, have prevented eradication of lentiviruses (Nicastri, 2008).
0.1664 g FX101 was dissolved into 30 mL 15% DMSO/PBS and stirred overnight. This solution was sterile-filtered using a 20-mL syringe fitted with a […] Sarstedt filter. Each dose was administered under anesthesia, a 1.5 mL venous injection using a 2.5 mL syringe fitted with a 22G 1¼-in. needle (latex free). Feline BR weighed 3.2 kg at the start of the experiment and CF weighed 2.8 kg. Each received 8.3 mg drug with each dose, so dosages were 2.6 mg/kg for BR and 3.0 mg/kg for CF.

[2] = test system: peripheral CD4+ and CD8+ T-lymphocytes; experiment: Circulating CD4+ and CD8+ T-lymphocytes by flow cytometry; type: in vivo, domestic cat
Method: Numbers of peripheral CD4^+ and CD8^+ T-lymphocytes in the blood were determined by labeling with mouse monoclonal antibodies to feline CD4^+ (FE1.7B12) and feline CD8^+ (FE1.10E9), obtained from Peter F. Moore, University of California, Davis, Calif. Bound primary antibodies were detected using FITC-conjugated anti-mouse IgG1 (Space-Serotec, Milan, Italy), and the samples were analyzed on a FACScan flow cytometer (Becton Dickinson, San Jose, Calif.). Both a negative (no drug) and positive (integrase inhibitor cocktail) control are included with data from two HK inhibitor-tested felines.

M2 strain of FIV = experiment: Second FIV cat study, plasma viremia (five treated, three control cats); type: in vivo, domestic cat; details: after 6 intravenous doses of 3 mg/kg over four weeks, controls showed active viremia
Text: Eight specific-pathogen-free domestic female cats infected >2 years with the M2 strain of FIV were used in another study. Cats were housed individually in a climatized animal facility in accordance with standards, had ad libitum access to fresh water and food, and were sedated with Tiletamine/Zolazepam intramuscularly prior to any procedure. The animals were divided into two groups, with five receiving FX101 in 10% DMSO/saline (treated) and three receiving only 10% DMSO/saline (control). Prior to initiation of the treatment and at scheduled times, samples were collected for hematological and virological analyses. The cats received 6 intravenous doses of 3 mg/kg FX101 over four weeks. Cats were matched by birthdates and infection dates with similar viral blood plasma viremia levels at the onset of the study. […] Current antretrovirals are required on a daily basis; the efficacy of six doses of treatment over four weeks supports a distinct mechanism from the nucleotide/non-nucleotide reverse transcriptase, protease and infectivity inhibitors. Efficacy extends across diverse strains of FIV, in agreement with alterations by platinum(IV) compounds to the zinc-binding nucleocapsid domain being therapeutically targeted. It is anticipated that cotherapies targeting multiple mechanisms may eventually provide viral clearance for an infected host.

Calcitonin = experiment: Feline blood serum immunofluorescent bead analysis: Calcitonin; type: in vivo, cat; details: cats BR, CF
Method: Test sera samples from select felines were analyzed using the Rules-Based Medicine (Austin, Tex.) human multi-analyte for 90 measures from a single sample of less than 0.5 mL. The assay uses immunofluorescent beads to simultaneously measure antibody recognition to individually identifiable colored beads, each conjugated with a specific antibody, within a single well plate. Blood samples were drawn preceding (pretreatment) and following (post treatment) one-month FX101 treatment (from felines in Example 6), and are compared with two uninfected control felines. Human cross-reactive antibodies are commonly used for felines, and are relative rather than quantitative measures. Reductions in TNF-alpha and MMP-2 are evident in treated cats; TIMP-1 (Tissue Inhibitor of Metalloproteinases) is not associated with the downregulation of MMP-2. Both MMP-2 and MMP-9, as well as MCP-1, are considered important contributors to the penetration of virally-infected cells across the BBB (Webster, 2006). Additional comments follow the table.

[3] = Blood brain barrier penetration: CSF platinum by graphite furnace atomic absorption; type: in vivo, cat; details: final i.v. treatment, both cats
Method: Cerebrospinal fluid (CSF) from cats BR and CF of Example 6 were collected under sedation following humane animal practices. CSF (0.5-1 ml) samples were collected within 15 minutes of FX101 peripheral intravenous (IV) injection to examine for drug penetration into the CNS. Importantly, this analysis was conducted upon the final IV drug treatment, which would most likely evidence resistances to CNS uptake as experienced by other CNS-penetrable drugs. Instead, CSF concentrations (analyzed by graphite furnace atomic absorption spectrometry for this inorganic complex as illustrated for cat “BG”) were equivalent to blood serum concentrations of 5 micrograms/mL in both cats, supporting a continuing unimpeded penetration into the vital CNS compartment through the blood brain barrier.

[4] = Oct. 4, 2007 (+2 wk) post treatment

Structure (SMILES): [NH2][Pt]([NH2])([Cl])([Cl])([Cl])[N+](=O)[O-] [FX101, nitrotrichlorodiamminoPt(IV)]
- mature p24 content in host cells and viral progeny (Western blot) (p24 Gag protein): absence of mature p24
- PBMC proviral load immediately following final dosing (in words) ([1]; 14 days after the final dosing, both animals): short increase
- Proviral Load in PBMC ([1]; Aug. 23, 2007 start of treatment period, blood collected prior to dosing): 4472 proviral DNA copies/ug genomic DNA and 6867 proviral DNA copies/ug genomic DNA
- Proviral Load in PBMC ([1]; Aug. 30, 2007 treatment period): 5803 proviral DNA copies/ug genomic DNA and 6476 proviral DNA copies/ug genomic DNA
- Proviral Load in PBMC ([1]; Jun. 12, 2008 (+38 wk) post treatment): 1747 proviral DNA copies/ug genomic DNA and 1350 proviral DNA copies/ug genomic DNA
- Proviral Load in PBMC ([1]; Mar. 27, 2008 (+27 wk) post treatment): 1250 proviral DNA copies/ug genomic DNA and 1000 proviral DNA copies/ug genomic DNA
- Proviral Load in PBMC [1, 4]: 14500 proviral DNA copies/ug genomic DNA and 14724 proviral DNA copies/ug genomic DNA
- Proviral Load in PBMC ([1]; Oct. 20, 2007 (+4 wk) post treatment): 4211 proviral DNA copies/ug genomic DNA and 2790 proviral DNA copies/ug genomic DNA
- Proviral Load in PBMC ([1]; Sep. 20, 2007 treatment period): 4152 proviral DNA copies/ug genomic DNA and 4660 proviral DNA copies/ug genomic DNA
- proviral loads over subsequent months (in words) ([1]; months after treatment, vs pretreatment baseline): declined over subsequent months, even below pretreatment baseline measures
- Relative CD4+/CD8+ T-Lymphocyte Counts ([2]; Aug. 2, 2007 pretreatment period): 1.1 and 1.3
- Relative CD4+/CD8+ T-Lymphocyte Counts ([2]; Aug. 23, 2007 start of treatment period): 1.2
- Relative CD4+/CD8+ T-Lymphocyte Counts ([2]; Aug. 30, 2007 treatment period): 1.5 and 1.3
- Relative CD4+/CD8+ T-Lymphocyte Counts ([2]; Dec. 1, 2005 pretreatment period): 1.5 and 2.0
- Relative CD4+/CD8+ T-Lymphocyte Counts ([2]; Feb. 1, 2006 pretreatment period): 0.82 and 1.1
- Relative CD4+/CD8+ T-Lymphocyte Counts ([2]; Jan. 1, 2006 pretreatment period): 1.6 and 0.92
- Relative CD4+/CD8+ T-Lymphocyte Counts ([2]; Mar. 1, 2006 pretreatment period): 0.84 and 1.2
- Relative CD4+/CD8+ T-Lymphocyte Counts ([2]; May 8, 2008 (+33 wk) post treatment): 1.8 and 1.6
- Relative CD4+/CD8+ T-Lymphocyte Counts ([2]; Nov. 1, 2005 pretreatment period): 0.86 and 0.85
- Relative CD4+/CD8+ T-Lymphocyte Counts [2, 4]: 1.9 and 1.4
- Relative CD4+/CD8+ T-Lymphocyte Counts ([2]; Sep. 4, 2007 treatment period): 1.5 and 1.6
- final CD4+/CD8+ ratios compared with controls ([2]; conclusion of the study, both tested felines): remained higher
- plasma viremia levels (M2 strain of FIV): below the detection limit of the assay
- Calcitonin, relative blood serum measure (Calcitonin; post treatment (one-month FX101 treatment)): 2.9 pg/mL
- Calcitonin, relative blood serum measure (Calcitonin; pretreatment): 7.6 pg/mL and 11 pg/mL
- blood serum concentrations [3]: 5 micrograms/mL
- CSF concentrations ([3]; within 15 minutes of peripheral i.v. injection): 5 micrograms/mL

Reference: patent US8895610B1, “Platinum (IV) compounds targeting zinc finger domains” (priority 2007, dated 2014)
